# pIC50: −log10 of the molar value.
# What was measured:
# Experiment in all cases: cells
# Mo = assay type: functional, cell-based, Homo sapiens; conditions: Homo sapiens, Mo
# Description: SANGER: Inhibition of human Mo-T cell growth in a cell viability assay.
# GCIY = assay type: functional, cell-based, Homo sapiens; conditions: Homo sapiens, GCIY;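 also: growth inhibition of the human GCIY cell line, read out by a cell viability assay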
# Description: SANGER: Inhibition of human GCIY cell growth in a cell viability assay.
# D-263MG = assay type: functional, cell-based, Homo sapiens; conditions: Homo sapiens, D-263MG
# Description: SANGER: Inhibition of human D-263MG cell growth in a cell viability assay.
# Calu-6 = assay type: functional, cell-based, Homo sapiens; conditions: Homo sapiens, Calu-6;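 also: growth of human Calu-6 cells, read out by a cell viability assay, IC50 marking inhibition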
# Description: SANGER: Inhibition of human Calu-6 cell growth in a cell viability assay.
# ONS-76 = assay type: functional, cell-based, Homo sapiens; conditions: Homo sapiens, ONS-76;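 also: growth inhibition of human ONS-76 cells, read out with a cell viability assay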
# Description: SANGER: Inhibition of human ONS-76 cell growth in a cell viability assay.
# COLO-684 = assay type: functional, cell-based, Homo sapiens; conditions: Homo sapiens, COLO-684
# DMS-114 = assay type: functional, cell-based, Homo sapiens; conditions: Homo sapiens, DMS-114
# KS-1 = assay type: functional, cell-based; conditions: Homo sapiens;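 also: growth inhibition of KS-1 cells, read out with a cell viability assay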
# Description: SANGER: Inhibition of human KS-1 cell growth in a cell viability assay.
# C2BBe1 = assay type: functional, cell-based, Homo sapiens; conditions: Homo sapiens, C2BBe1;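 also: growth inhibition of C2BBe1 cells, read out through a viability assay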
# Description: SANGER: Inhibition of human C2BBe1 cell growth in a cell viability assay.
# A704 = assay type: functional, cell-based; conditions: Homo sapiens;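 also: growth inhibition of human A704 cells, read out with a cell viability assay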
# Description: SANGER: Inhibition of human A704 cell growth in a cell viability assay.
# MEG-01 = assay type: functional, cell-based, Homo sapiens; conditions: Homo sapiens, MEG-01;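 also: growth inhibition of MEG-01 cells, read out by a cell viability assay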
# Description: SANGER: Inhibition of human MEG-01 cell growth in a cell viability assay.
# MZ2-MEL = assay type: functional, cell-based, Homo sapiens; conditions: Homo sapiens, MZ2-MEL;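 also: growth inhibition of MZ2-MEL cells read out with a cell viability assay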
# Description: SANGER: Inhibition of human MZ2-MEL cell growth in a cell viability assay.
# SW684 = assay type: functional, cell-based, Homo sapiens; conditions: Homo sapiens, SW684;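 also: growth inhibition of human SW684 cells, measured by a cell viability assay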
# TK-10 = assay type: functional, cell-based, Homo sapiens; conditions: Homo sapiens, TK-10;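 also: growth inhibition of TK-10 cells, read out in a cell viability assay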
# MHH-PREB-1 = assay type: functional, cell-based, Homo sapiens; conditions: Homo sapiens, MHH-PREB-1;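 also: cell viability assay measuring inhibition of proliferation of human MHH-PREB-1 cells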
# Description: SANGER: Inhibition of human MHH-PREB-1 cell growth in a cell viability assay.
# OVCAR-4 = assay type: functional, cell-based, Homo sapiens; conditions: Homo sapiens, OVCAR-4;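 also: growth inhibition of human OVCAR-4 cells, measured with a cell viability assay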
# Description: SANGER: Inhibition of human OVCAR-4 cell growth in a cell viability assay.
# IST-MES1 = assay type: functional, cell-based, Homo sapiens; conditions: Homo sapiens, IST-MES1;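 also: growth inhibition of IST-MES1 cells, measured with a cell viability assay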
# Description: SANGER: Inhibition of human IST-MES1 cell growth in a cell viability assay.
# BB65-RCC = assay type: functional, cell-based, Homo sapiens; conditions: Homo sapiens, BB65-RCC;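 also: growth inhibition of the cell line, measured with a cell viability assay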
# Description: SANGER: Inhibition of human BB65-RCC cell growth in a cell viability assay.
# SH-4 = assay type: functional, cell-based; conditions: Homo sapiens;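 also: growth inhibition of SH-4 cells, read out with a cell viability assay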
# MZ7-mel = assay type: functional, cell-based, Homo sapiens; conditions: Homo sapiens, MZ7-mel;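 also: growth inhibition of human MZ7-mel cells, measured by a cell viability assay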
# Description: SANGER: Inhibition of human MZ7-mel cell growth in a cell viability assay.
# ES8 = assay type: functional, cell-based, Homo sapiens; conditions: Homo sapiens, ES8;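 also: growth inhibition of human ES8 cells, read out with a cell viability assay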
# Description: SANGER: Inhibition of human ES8 cell growth in a cell viability assay.
# LB831-BLC = assay type: functional, cell-based, Homo sapiens; conditions: Homo sapiens, LB831-BLC;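 also: growth inhibition of LB831-BLC cells, read out with a cell viability assay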
# Description: SANGER: Inhibition of human LB831-BLC cell growth in a cell viability assay.
# TE-5 = assay type: functional, cell-based, Homo sapiens; conditions: Homo sapiens, TE-5;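 also: inhibition of cell growth, read out by a cell viability assay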
# Description: SANGER: Inhibition of human TE-5 cell growth in a cell viability assay.
# KNS-81-FD = assay type: functional, cell-based, Homo sapiens; conditions: Homo sapiens, KNS-81-FD;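 also: growth inhibition of KNS-81-FD cells, read out with a cell viability assay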
# Description: SANGER: Inhibition of human KNS-81-FD cell growth in a cell viability assay.
# RS4-11 = assay type: functional, cell-based, Homo sapiens; conditions: Homo sapiens, RS4-11;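 also: growth inhibition of RS4-11 cells, read out by a cell viability assay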
# Description: SANGER: Inhibition of human RS4-11 cell growth in a cell viability assay.
# IST-SL1 = assay type: functional, cell-based, Homo sapiens; conditions: Homo sapiens, IST-SL1;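 also: growth inhibition of human IST-SL1 cells, read out with a cell viability assay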
# Description: SANGER: Inhibition of human IST-SL1 cell growth in a cell viability assay.
# LOX IMVI = assay type: functional, cell-based, Homo sapiens; conditions: Homo sapiens, LOX IMVI
# Description: SANGER: Inhibition of human LOXIMVI cell growth in a cell viability assay.
# TE-6 = assay type: functional, cell-based, Homo sapiens; conditions: Homo sapiens, TE-6;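 also: growth inhibition of TE-6 cells, read out with a cell viability assay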
# Description: SANGER: Inhibition of human TE-6 cell growth in a cell viability assay.
# C8166 = assay type: functional, cell-based, Homo sapiens; conditions: Homo sapiens, C8166;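 also: growth inhibition of human C8166 cells measured by a cell viability assay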
# Description: SANGER: Inhibition of human C8166 cell growth in a cell viability assay.
# Ramos-2G6-4C10 = assay type: functional, cell-based, Homo sapiens; conditions: Homo sapiens, Ramos-2G6-4C10;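 also: growth inhibition of the cell line, measured by a cell viability read-out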
# Description: SANGER: Inhibition of human Ramos-2G6-4C10 cell growth in a cell viability assay.
# COLO-829 = assay type: functional, cell-based, Homo sapiens; conditions: Homo sapiens, COLO-829
# Description: SANGER: Inhibition of human COLO-829 cell growth in a cell viability assay.
# LS-513 = assay type: functional, cell-based, Homo sapiens; conditions: Homo sapiens, LS-513
# Description: SANGER: Inhibition of human LS-513 cell growth in a cell viability assay.
# TGBC1TKB = assay type: functional, cell-based, Homo sapiens; conditions: Homo sapiens, TGBC1TKB;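 also: growth inhibition of TGBC1TKB cells, read out by a cell viability assay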
# Description: SANGER: Inhibition of human TGBC1TKB cell growth in a cell viability assay.
# HAL-01 = assay type: functional, cell-based, Homo sapiens; conditions: Homo sapiens, HAL-01;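 also: growth inhibition of human HAL-01 cells, read out with a cell viability assay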
# Description: SANGER: Inhibition of human HAL-01 cell growth in a cell viability assay.
# SCC-15 = assay type: functional, cell-based, Homo sapiens; conditions: Homo sapiens, SCC-15;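 also: growth inhibition of SCC-15 cells, read out with a cell viability assay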
# KALS-1 = assay type: functional, cell-based, Homo sapiens; conditions: Homo sapiens, KALS-1;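 also: growth inhibition of KALS-1 cells, determined with a cell viability assay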
# Description: SANGER: Inhibition of human KALS-1 cell growth in a cell viability assay.
# L-363 = assay type: functional, cell-based, Homo sapiens; conditions: Homo sapiens, L-363
# NCI-H82 = assay type: functional, cell-based, Homo sapiens; conditions: Homo sapiens, NCI-H82;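 also: growth inhibition of NCI-H82 cells, measured with a cell viability readout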
# Description: SANGER: Inhibition of human NCI-H82 cell growth in a cell viability assay.
# A101D = assay type: functional, cell-based, Homo sapiens; conditions: Homo sapiens, A101D;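 also: growth inhibition of the cell line, measured with a viability assay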
# Description: SANGER: Inhibition of human A101D cell growth in a cell viability assay.
# L-428 = assay type: functional, cell-based, Homo sapiens; conditions: Homo sapiens, L-428
# Description: SANGER: Inhibition of human L-428 cell growth in a cell viability assay.
# ES6 = assay type: functional, cell-based; conditions: Homo sapiens;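 also: growth inhibition of human ES6 cells, read out with a cell viability assay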
# Description: SANGER: Inhibition of human ES6 cell growth in a cell viability assay.
# DEL = assay type: functional, cell-based, Homo sapiens; conditions: Homo sapiens, DEL;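 also: growth inhibition of the human DEL cell line, read out with a cell viability assay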
# Description: SANGER: Inhibition of human DEL cell growth in a cell viability assay.
# EW-18 = assay type: functional, cell-based, Homo sapiens; conditions: Homo sapiens, EW-18;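 also: growth inhibition of EW-18 cells, read out by a cell viability assay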
# Description: SANGER: Inhibition of human EW-18 cell growth in a cell viability assay.
# SK-NEP-1 = assay type: functional, cell-based, Homo sapiens; conditions: Homo sapiens, SK-NEP-1;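 also: growth inhibition of human SK-NEP-1 cells, read out by a cell viability assay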
# Description: SANGER: Inhibition of human SK-NEP-1 cell growth in a cell viability assay.
# no-10 = assay type: functional, cell-based, Homo sapiens; conditions: Homo sapiens;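 also: growth inhibition of no-10 cells, read out with a cell viability assay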
# QIMR-WIL = assay type: functional, cell-based, Homo sapiens; conditions: Homo sapiens, QIMR-WIL;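 also: growth inhibition of QIMR-WIL cells, read out with a cell viability assay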
# Description: SANGER: Inhibition of human QIMR-WIL cell growth in a cell viability assay.
# DJM-1 = assay type: functional, cell-based, Homo sapiens; conditions: Homo sapiens, DJM-1;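 also: growth inhibition of human DJM-1 cells, read out by a cell viability assay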
# ETK-1 = assay type: functional, cell-based, Homo sapiens; conditions: Homo sapiens, ETK-1;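 also: growth inhibition of human ETK-1 cells, read out with a cell viability assay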
# Description: SANGER: Inhibition of human ETK-1 cell growth in a cell viability assay.
# KM12 = assay type: functional, cell-based, Homo sapiens; conditions: Homo sapiens, KM12;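 also: KM12 cell growth inhibition, read out with a cell viability assay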
# Description: SANGER: Inhibition of human KM12 cell growth in a cell viability assay.
# EW-1 = assay type: functional, cell-based, Homo sapiens; conditions: Homo sapiens, EW-1
# Description: SANGER: Inhibition of human EW-1 cell growth in a cell viability assay.
smiles,measurement,setting,value
Cc1ccc(NC(=O)c2ccc(CN3CCN(C)CC3)cc2)cc1Nc1nccc(-c2cccnc2)n1 [IMATINIB],pIC50,Mo,< 5.70
same,pIC50,GCIY,< 5.70
same,pIC50,D-263MG,< 5.70
same,pIC50,Calu-6,< 5.70
same,pIC50,ONS-76,< 5.70
same,pIC50,COLO-684,< 5.70
same,pIC50,DMS-114,< 5.70
same,pIC50,KS-1,< 5.70
same,pIC50,C2BBe1,< 5.70
same,pIC50,A704,< 5.70
same,pIC50,MEG-01,7.05
same,pIC50,MZ2-MEL,< 5.70
same,pIC50,SW684,< 5.70
same,pIC50,TK-10,< 5.70
same,pIC50,MHH-PREB-1,< 5.70
same,pIC50,OVCAR-4,< 5.70
same,pIC50,IST-MES1,< 5.70
same,pIC50,BB65-RCC,< 5.70
same,pIC50,SH-4,< 5.70
same,pIC50,MZ7-mel,< 5.70
same,pIC50,ES8,< 5.70
same,pIC50,LB831-BLC,< 5.70
same,pIC50,TE-5,< 5.70
same,pIC50,KNS-81-FD,< 5.70
same,pIC50,RS4-11,< 5.70
same,pIC50,IST-SL1,< 5.70
same,pIC50,LOX IMVI,< 5.70
same,pIC50,TE-6,< 5.70
same,pIC50,C8166,< 5.70
same,pIC50,Ramos-2G6-4C10,< 5.70
same,pIC50,COLO-829,< 5.70
same,pIC50,LS-513,< 5.70
same,pIC50,TGBC1TKB,< 5.70
same,pIC50,HAL-01,< 5.70
same,pIC50,SCC-15,< 5.70
same,pIC50,KALS-1,< 5.70
same,pIC50,L-363,< 5.70
same,pIC50,NCI-H82,< 5.70
same,pIC50,A101D,< 5.70
same,pIC50,L-428,< 5.70
same,pIC50,ES6,< 5.70
same,pIC50,DEL,< 5.70
same,pIC50,EW-18,< 5.70
same,pIC50,SK-NEP-1,< 5.70
same,pIC50,no-10,< 5.70
same,pIC50,QIMR-WIL,< 5.70
same,pIC50,DJM-1,< 5.70
same,pIC50,ETK-1,< 5.70
same,pIC50,KM12,< 5.70
same,pIC50,EW-1,< 5.70
CC1(C)CCC(c2ccc(Cl)cc2)=C(CN2CCN(c3ccc(C(=O)NS(=O)(=O)c4ccc(N[C@H](CCN5CCOCC5)CSc5ccccc5)c(S(=O)(=O)C(F)(F)F)c4)cc3)CC2)C1 [NAVITOCLAX],pIC50,Mo,< 5.70
same,pIC50,GCIY,< 5.70
same,pIC50,D-263MG,< 5.70
same,pIC50,Calu-6,< 5.70
same,pIC50,ONS-76,< 5.70
same,pIC50,COLO-684,< 5.70
same,pIC50,DMS-114,< 5.70
same,pIC50,KS-1,< 5.70
same,pIC50,C2BBe1,< 5.70
same,pIC50,A704,6.37
same,pIC50,MEG-01,6.23
same,pIC50,MZ2-MEL,< 5.70
same,pIC50,SW684; read-out: IC50,< 5.70
same,pIC50,TK-10,< 5.70
same,pIC50,MHH-PREB-1,< 5.70
same,pIC50,OVCAR-4,< 5.70
same,pIC50,IST-MES1,< 5.70
same,pIC50,BB65-RCC,< 5.70
same,pIC50,SH-4,< 5.70
same,pIC50,MZ7-mel,< 5.70
same,pIC50,ES8,< 5.70
same,pIC50,LB831-BLC,< 5.70
same,pIC50,TE-5,< 5.70
same,pIC50,KNS-81-FD,6.36
same,pIC50,RS4-11,7.59
same,pIC50,IST-SL1,6.45
same,pIC50,LOX IMVI,< 5.70
same,pIC50,TE-6,< 5.70
same,pIC50,C8166,< 5.70
same,pIC50,Ramos-2G6-4C10,5.76
same,pIC50,COLO-829,< 5.70
same,pIC50,LS-513,< 5.70
same,pIC50,TGBC1TKB,5.94
same,pIC50,HAL-01,6.14
same,pIC50,SCC-15,< 5.70
same,pIC50,KALS-1; read-out: IC50,< 5.70
same,pIC50,L-363,< 5.70
same,pIC50,NCI-H82,< 5.70
same,pIC50,A101D,< 5.70
same,pIC50,L-428,5.99
same,pIC50,ES6,< 5.70
same,pIC50,DEL,5.76
same,pIC50,EW-18; read-out: IC50,7.16
same,pIC50,SK-NEP-1,7.14
same,pIC50,no-10,< 5.70
same,pIC50,QIMR-WIL,7.37
same,pIC50,DJM-1,< 5.70
same,pIC50,ETK-1,< 5.70
same,pIC50,KM12,< 5.70
same,pIC50,EW-1,< 5.70

# Source: ChEMBL document CHEMBL1201861, “Genomics of Drug Sensitity in Cancer screening data, Wellcome Trust Sanger Institute”
